Results on 9 compounds are retold here after ChEMBL document CHEMBL1131044, “Discovery and preclinical pharmacology of a novel, potent, nonsteroidal estrogen receptor agonist/antagonist, CP-336156, a diaryltetrahydronaphthalene” (J Med Chem, 1998).

Structures are written as SMILES. Bounds are passed on as bounds.

One data set deals with Estrogen receptor (Rattus norvegicus, UniProt P06211+Q62986).
For data set [1], the species on record is Rattus norvegicus.
Description: In vivo prevention of reduced serum cholesterol in ovariectomised rats on oral administration
For data set [2], the species on record is Rattus norvegicus. The source holds these as a separate data set.
Description: In vivo prevention of bone loss in ovariectomised rats on oral administration
A short description of data set [3]: Oral bioavailability in rat. In kind it is ADME, organism-based. As to conditions: in vivo.
Data set [4] in a line: Oral bioavailability in cynomolgus monkey. In kind it is ADME, organism-based, Macaca fascicularis. As to conditions: in vivo.
The nature of another data set: in vivo. As to conditions: rat, po.

As to `Oc1ccc2c(c1)CC[C@@H](c1ccccc1)[C@H]2c1ccc(OCCN2CCCC2)cc1`, at Estrogen receptor, the IC50 (usually the concentration at which inhibition is half-maximal) is given as 270 nM. Also, the ED50 in the data set listed under Rattus norvegicus [1] and in the data set filed under Rattus norvegicus [2] was more than 500 µg/day/kg throughout. In addition, the bioavailability in data set [3] was determined as 29%.
`Oc1ccc2c(c1)CC[C@H](c1ccccc1)[C@H]2c1ccc(OCCN2CCCC2)cc1` had an IC50 against Estrogen receptor of 9.75 nM. Also, the bioavailability in data set [3] came to 16%.
For `COc1ccc2c(c1)CCC(c1ccccc1)C2c1ccc(OCCN2CCCC2)cc1` (centres undefined), the IC50 at Estrogen receptor is 132 nM.
On to `Oc1ccc2c(c1)CCC(c1ccccc1)=C2c1ccc(OCCN2CCCC2)cc1`, for which the IC50 against Estrogen receptor amounted to 47.1 nM.
`Oc1ccc2c(c1)OC(c1ccc(OCCN3CCCC3)cc1)C(c1ccccc1)=C2` (centres undefined) came in with an IC50 against Estrogen receptor of 11.1 nM. For the same compound, the ED50 in the data set listed under Rattus norvegicus [1] and in the data set listed under Rattus norvegicus [2] was 175 µg/day/kg in each case. In data set [3], this compound yielded a bioavailability of 27%.
`Oc1ccc2c(c1)CC[C@H](c1ccccc1)[C@@H]2c1ccc(OCCN2CCCC2)cc1` (stereo in doubt; 9) [LASOFOXIFENE] registered an IC50 against Estrogen receptor of 11.1 nM. The bioavailability in data set [3] came to 60%.
In the case of `Oc1ccc2c(c1)CC[C@H](c1ccccc1)[C@@H]2c1ccc(OCCN2CCCC2)cc1` (stereo in doubt; 14) [LASOFOXIFENE], the bioavailability in data set [4] is 45%. The IC50 against Estrogen receptor turned out to be 11.3 nM. Besides, the ED50 (in general, the midpoint of the dose-response relation) was 10 µg/day/kg in the data set filed under Rattus norvegicus [1] and less than 1 µg/day/kg in the data set filed under Rattus norvegicus [2]. For the same compound, the F in data set [3] turned out to be 62%.
In turn, `COc1ccc2c(c1)CCC(c1ccccc1)=C2c1ccc(OCCN2CCCC2)cc1` [NAFOXIDINE] had an IC50 against Estrogen receptor of 40.9 nM.
Turning to `O=C(c1ccc(OCCN2CCCCC2)cc1)c1c(-c2ccc(O)cc2)sc2cc(O)ccc12` [RALOXIFENE], the bioavailability in data set [4] (read-out: Bioavailabiility) turned out to be 5%; in the data set “in vivo”, 10%. Moreover, the ED50 in the data set filed under Rattus norvegicus [1] and in the data set filed under Rattus norvegicus [2] was 500 µg/day/kg throughout.
